Reference: patent publication US20090082408A1, “NOVEL HETEROCYCLIC DERIVATIVES” (priority 2005, published 2009)
Where a name gives a salt, the structure may show the parent alone.

Experiments:
3T3-L1 cells = assay: Glucose uptake assay using 3T3-L1 cells; assay type: cell-based; conditions: 14C deoxyglucose uptake in differentiated 3T3-L1 adipocytes; 1 μM for 72 hours; relative to reference compound BLX-1002
Procedure: Glucose Uptake Assay Using 3T3-L1 Cells
3T3-L1 cells were differentiated by the addition of differentiation cocktail (72 μg/ml insulin, 0.5 mM IBMX, 400 ng/ml Dexamethasone) for 4 days and were later fed with media without the differentation cocktail for 7-8 days. After differentiation the cells were incubated with the either the reference compound BLX-1002 or with the compounds listed in the table 1 at 1 μM concentrations for 72 hours, and the glucose uptake assay was carried out for 10 minutes by the addition of KRP buffer supplemented with 2.5 μCi/ml ^14C deoxy glucose. Stimulation Index is defined as the amount of ^14C Deoxyglucose uptake induced by 1 μM of BLX-1002 incubated for 72 hours in an assay condition as per the protocol described above with differentiated 3T3-L1 adipocytes. The values for compounds mentioned in table-1 are with reference to the stimulation index of reference compound BLX-1002.

[1] = system: streptozotocin induced diabetic mice; assay: Antidiabetic activity in streptozotocin induced diabetic mice; assay type: in vivo; conditions: 50 mg/kg body weight, oral route, 7 days, female Swiss albino mice, fasted 6 hours
Procedure: Antidiabetic Activity in Streptozotocin Induced Diabetic Mice
Female Swiss albino mice, at the age of 10 weeks were used in the study. Diabetes was induced in the animals by injecting streptozotocin by i.p. route at a dose of 200 mg/kg body weight. 48 hours after streptozotocin administration, the animals were kept fasting for 6 hours. Subsequently blood was collected, plasma separated and the glucose was estimated. Animals showing greater than 200 mg/dl glucose levels were considered as diabetic and these animals were randomly distributed into various groups. The example 2 listed in the table 2 was administered at a dose of 50-mg/kg body weight by oral route for 7 days. Later the animals were fasted for 6 hours, the blood was collected and the plasma was separated. Biochemical estimations like glucose, cholesterol and triglycerides were carried out using the plasma. The effect of the compounds mentioned in the table was expressed in terms of percentage reduction in biochemical values as compared to the control group.

## COC(=O)C(N)Cc1ccc(Oc2ccc(Nc3ccccn3)cc2)cc1 (stereo not drawn) [Example 1, Methyl-2-amino-3-{4-[4-(pyridin-2-ylamino)phenoxy]phenyl}propionate dihydrochloride]
3T3-L1 cells
  Stimulation Index: 1.10

## COC(=O)[C@@H](N)Cc1ccc(Oc2ccc(Nc3ccccn3)cc2)cc1 [Example 2, Methyl (2S)-2-amino-3-{4-[4-(pyridin-2-ylamino)phenoxy]phenyl}propanoate dihydrochloride]
[1]; plasma glucose vs control group
  % Reduction Glucose: 52.4%
[1]; plasma triglyceride vs control group
  % Reduction Triglyceride: 49.6%
